The record followed here is ChEMBL document CHEMBL4425144, “Discovery and Structural Optimization of N5-Substituted 6,7-Dioxo-6,7-dihydropteridines as Potent and Selective Epidermal Growth Factor Receptor (EGFR) Inhibitors against L858R/T790M Resistance Mutation” (J Med Chem, 2016).

Calls of active or inactive are those of the source. The calls are words filed in the database; no cut-off is given here. Some results are limits rather than exact numbers.

Series [1] deals with T1, Cyclin-G-associated kinase (Homo sapiens) (UniProt O14976).
T1 sequence (whole entry): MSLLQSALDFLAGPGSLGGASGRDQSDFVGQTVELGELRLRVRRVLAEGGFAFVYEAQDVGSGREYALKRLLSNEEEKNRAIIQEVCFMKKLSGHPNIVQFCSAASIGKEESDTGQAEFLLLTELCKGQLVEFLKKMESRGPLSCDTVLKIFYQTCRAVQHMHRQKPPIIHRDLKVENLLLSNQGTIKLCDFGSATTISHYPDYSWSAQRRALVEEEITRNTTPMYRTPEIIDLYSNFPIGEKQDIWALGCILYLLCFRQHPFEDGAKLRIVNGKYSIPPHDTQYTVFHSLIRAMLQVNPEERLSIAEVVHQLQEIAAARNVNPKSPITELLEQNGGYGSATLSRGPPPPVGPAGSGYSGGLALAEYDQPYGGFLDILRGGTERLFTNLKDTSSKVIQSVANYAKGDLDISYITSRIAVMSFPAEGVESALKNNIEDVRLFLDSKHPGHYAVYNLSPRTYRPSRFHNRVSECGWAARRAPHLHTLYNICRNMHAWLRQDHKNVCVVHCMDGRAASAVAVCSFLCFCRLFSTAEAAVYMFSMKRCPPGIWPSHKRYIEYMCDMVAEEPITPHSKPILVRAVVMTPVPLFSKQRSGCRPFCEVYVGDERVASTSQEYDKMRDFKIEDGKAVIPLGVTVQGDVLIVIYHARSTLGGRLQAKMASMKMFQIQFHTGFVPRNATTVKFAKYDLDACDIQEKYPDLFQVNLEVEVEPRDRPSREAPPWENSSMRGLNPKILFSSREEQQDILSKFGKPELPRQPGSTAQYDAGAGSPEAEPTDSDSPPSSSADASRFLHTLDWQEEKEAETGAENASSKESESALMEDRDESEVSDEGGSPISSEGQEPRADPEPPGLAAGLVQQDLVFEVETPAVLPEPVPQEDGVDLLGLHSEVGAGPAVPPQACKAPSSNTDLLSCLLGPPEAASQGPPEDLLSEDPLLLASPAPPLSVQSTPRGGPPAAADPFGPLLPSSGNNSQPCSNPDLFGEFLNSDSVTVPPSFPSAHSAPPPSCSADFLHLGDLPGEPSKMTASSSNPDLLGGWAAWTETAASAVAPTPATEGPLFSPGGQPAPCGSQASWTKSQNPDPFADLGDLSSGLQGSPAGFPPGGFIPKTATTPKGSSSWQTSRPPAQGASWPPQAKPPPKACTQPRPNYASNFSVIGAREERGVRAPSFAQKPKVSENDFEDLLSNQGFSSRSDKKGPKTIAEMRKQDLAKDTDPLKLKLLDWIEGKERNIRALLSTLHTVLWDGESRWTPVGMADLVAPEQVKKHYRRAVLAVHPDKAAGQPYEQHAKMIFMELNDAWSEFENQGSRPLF
Put plainly: Inhibition of human GAK expressed in bacterial system assessed as remaining enzyme activity at 1000 nM relative to untreated control.

Series [2] deals with T2, Epidermal growth factor receptor (Homo sapiens, UniProt P00533). Put plainly: Inhibition of EGF-induced EGFR kinase domain phosphorylation in human NCI-H1975 cells at 1000 nM pre-incubated for 2 hrs followed by stimulation with EGF for 15 mins by Western blot method. Type of series: cell-based.
Series [3] can be described thus: AUC (0 to t) in ICR mouse at 10 mg/kg, po by LC-MS/MS method. Format: ADME, organism-based. Particulars: in vivo.
Series [4] is described as follows: Half life in ICR mouse at 10 mg/kg, po by LC-MS/MS method. Format: ADME, organism-based. The conditions noted are these: in vivo.
Series [5] deals with Receptor tyrosine-protein kinase erbB-4 (Homo sapiens) (UniProt Q15303). Briefly: Inhibition of human ERBB4 expressed in bacterial system assessed as remaining enzyme activity at 1000 nM relative to untreated control.
The next series has as its system A-431. Put plainly: Antitumor activity against human A431 cells xenografted in BALB/c mouse assessed as inhibition of tumor growth at 50 mg/kg, po qd for 14 consecutive days. Type of series: functional. Particulars: A-431, po, read-out: TGI.
Series [6] has as its target T2, Epidermal growth factor receptor. Put plainly: Inhibition of wild type EGFR kinase domain (unknown origin) expressed using baculovirus expression system incubated for 1 hr using Poly(Glu,Tyr) 4:1 by ELISA method.
Series [7] is described as follows: Clearance in ICR mouse at 1 mg/kg, iv by LC-MS/MS method. Type of series: ADME, organism-based. Particulars: in vivo.
For a further series, the system named is NCI-H1975. The conditions noted are these: Homo sapiens, at 50 mg/kg.
Series [8] can be described thus: AUC (0 to infinity) in ICR mouse at 10 mg/kg, po by LC-MS/MS method. Type of series: ADME, organism-based. On the set-up: dose 10 mg/kg, time infinity, route oral. Particulars: in vivo.
The nature of series [9]: Half life in ICR mouse at 1 mg/kg, iv by LC-MS/MS method. Format: ADME, organism-based. Particulars: in vivo.
The nature of series [10]: Toxicity in human NCI-H1975 cells xenografted BALB/c mouse assessed as body weight loss at 50 mg/kg, po qd for 14 consecutive days. Format: organism-based. Particulars: in vivo.
For series [11], the target named is Epidermal growth factor receptor (Homo sapiens, UniProt P00533, L858R/T790M). Briefly: Inhibition of EGFR kinase domain L858R/T790M mutant (unknown origin) expressed using baculovirus expression system incubated for 1 hr using Poly(Glu,Tyr) 4:1 by ELISA method.
Chain of Epidermal growth factor receptor (Homo sapiens, UniProt P00533, L858R/T790M) (P00533 25-1210 T790M/L858R limits assumed): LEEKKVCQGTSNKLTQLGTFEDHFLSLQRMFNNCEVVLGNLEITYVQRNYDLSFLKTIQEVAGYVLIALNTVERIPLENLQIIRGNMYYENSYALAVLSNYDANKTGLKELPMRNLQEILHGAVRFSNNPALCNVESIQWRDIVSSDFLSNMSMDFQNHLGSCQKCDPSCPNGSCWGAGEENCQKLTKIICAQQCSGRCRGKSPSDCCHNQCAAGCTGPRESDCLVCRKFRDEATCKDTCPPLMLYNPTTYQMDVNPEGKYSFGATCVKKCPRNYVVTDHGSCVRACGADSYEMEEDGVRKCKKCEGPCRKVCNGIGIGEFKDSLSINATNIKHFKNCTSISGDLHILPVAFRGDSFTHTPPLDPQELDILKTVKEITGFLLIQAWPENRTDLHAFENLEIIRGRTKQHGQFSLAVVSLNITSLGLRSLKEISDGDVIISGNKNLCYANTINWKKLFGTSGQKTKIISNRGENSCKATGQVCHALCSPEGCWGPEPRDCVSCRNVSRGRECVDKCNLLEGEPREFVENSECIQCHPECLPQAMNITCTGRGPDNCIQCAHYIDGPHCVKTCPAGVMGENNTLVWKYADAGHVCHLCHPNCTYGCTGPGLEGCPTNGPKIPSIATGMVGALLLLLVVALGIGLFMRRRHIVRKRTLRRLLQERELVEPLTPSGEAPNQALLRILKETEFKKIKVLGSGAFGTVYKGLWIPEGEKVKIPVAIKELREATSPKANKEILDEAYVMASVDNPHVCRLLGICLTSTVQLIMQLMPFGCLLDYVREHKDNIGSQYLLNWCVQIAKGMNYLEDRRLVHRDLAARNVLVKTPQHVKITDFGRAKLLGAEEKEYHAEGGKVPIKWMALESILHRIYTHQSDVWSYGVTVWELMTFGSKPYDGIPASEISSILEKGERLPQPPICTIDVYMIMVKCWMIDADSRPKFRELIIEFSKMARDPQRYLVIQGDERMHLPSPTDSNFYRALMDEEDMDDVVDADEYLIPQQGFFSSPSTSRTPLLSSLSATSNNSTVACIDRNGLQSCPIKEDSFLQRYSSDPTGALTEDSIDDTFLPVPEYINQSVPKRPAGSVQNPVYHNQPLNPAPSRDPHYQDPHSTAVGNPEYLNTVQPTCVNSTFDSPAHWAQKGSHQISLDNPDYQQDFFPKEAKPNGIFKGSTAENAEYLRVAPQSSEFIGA

T2 sequence (P00533 whole entry, the tested form may be a part): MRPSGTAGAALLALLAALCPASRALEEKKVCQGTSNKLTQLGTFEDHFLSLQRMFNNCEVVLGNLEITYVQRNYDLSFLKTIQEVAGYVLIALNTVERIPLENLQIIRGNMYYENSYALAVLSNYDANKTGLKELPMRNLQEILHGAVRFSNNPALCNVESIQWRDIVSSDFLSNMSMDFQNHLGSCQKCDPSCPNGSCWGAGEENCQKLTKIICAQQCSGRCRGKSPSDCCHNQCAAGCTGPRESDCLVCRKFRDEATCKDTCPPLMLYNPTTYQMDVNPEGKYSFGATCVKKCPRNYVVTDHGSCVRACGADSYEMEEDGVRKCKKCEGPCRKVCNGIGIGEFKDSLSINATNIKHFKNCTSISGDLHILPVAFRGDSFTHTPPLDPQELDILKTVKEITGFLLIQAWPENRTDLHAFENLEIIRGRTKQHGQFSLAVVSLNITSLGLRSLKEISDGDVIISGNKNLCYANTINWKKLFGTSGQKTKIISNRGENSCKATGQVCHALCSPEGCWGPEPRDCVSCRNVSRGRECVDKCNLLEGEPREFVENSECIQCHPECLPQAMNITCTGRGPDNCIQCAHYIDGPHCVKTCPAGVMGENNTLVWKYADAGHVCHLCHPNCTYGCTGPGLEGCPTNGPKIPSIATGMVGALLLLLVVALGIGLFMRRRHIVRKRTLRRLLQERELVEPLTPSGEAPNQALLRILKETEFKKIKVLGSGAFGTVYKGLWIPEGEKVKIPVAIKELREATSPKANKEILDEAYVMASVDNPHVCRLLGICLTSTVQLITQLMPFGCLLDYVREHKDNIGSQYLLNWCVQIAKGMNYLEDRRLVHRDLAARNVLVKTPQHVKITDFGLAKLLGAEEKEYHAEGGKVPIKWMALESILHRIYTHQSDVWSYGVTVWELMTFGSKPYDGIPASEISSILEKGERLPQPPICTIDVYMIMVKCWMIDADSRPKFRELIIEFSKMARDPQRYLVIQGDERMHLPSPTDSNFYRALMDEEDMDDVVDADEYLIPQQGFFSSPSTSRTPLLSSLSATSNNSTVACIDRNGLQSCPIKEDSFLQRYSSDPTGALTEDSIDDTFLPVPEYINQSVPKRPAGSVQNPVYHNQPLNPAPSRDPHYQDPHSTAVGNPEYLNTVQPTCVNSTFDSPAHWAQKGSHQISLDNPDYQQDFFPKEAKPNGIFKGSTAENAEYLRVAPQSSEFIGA
Chain of Receptor tyrosine-protein kinase erbB-4 (Homo sapiens) (Q15303 whole entry): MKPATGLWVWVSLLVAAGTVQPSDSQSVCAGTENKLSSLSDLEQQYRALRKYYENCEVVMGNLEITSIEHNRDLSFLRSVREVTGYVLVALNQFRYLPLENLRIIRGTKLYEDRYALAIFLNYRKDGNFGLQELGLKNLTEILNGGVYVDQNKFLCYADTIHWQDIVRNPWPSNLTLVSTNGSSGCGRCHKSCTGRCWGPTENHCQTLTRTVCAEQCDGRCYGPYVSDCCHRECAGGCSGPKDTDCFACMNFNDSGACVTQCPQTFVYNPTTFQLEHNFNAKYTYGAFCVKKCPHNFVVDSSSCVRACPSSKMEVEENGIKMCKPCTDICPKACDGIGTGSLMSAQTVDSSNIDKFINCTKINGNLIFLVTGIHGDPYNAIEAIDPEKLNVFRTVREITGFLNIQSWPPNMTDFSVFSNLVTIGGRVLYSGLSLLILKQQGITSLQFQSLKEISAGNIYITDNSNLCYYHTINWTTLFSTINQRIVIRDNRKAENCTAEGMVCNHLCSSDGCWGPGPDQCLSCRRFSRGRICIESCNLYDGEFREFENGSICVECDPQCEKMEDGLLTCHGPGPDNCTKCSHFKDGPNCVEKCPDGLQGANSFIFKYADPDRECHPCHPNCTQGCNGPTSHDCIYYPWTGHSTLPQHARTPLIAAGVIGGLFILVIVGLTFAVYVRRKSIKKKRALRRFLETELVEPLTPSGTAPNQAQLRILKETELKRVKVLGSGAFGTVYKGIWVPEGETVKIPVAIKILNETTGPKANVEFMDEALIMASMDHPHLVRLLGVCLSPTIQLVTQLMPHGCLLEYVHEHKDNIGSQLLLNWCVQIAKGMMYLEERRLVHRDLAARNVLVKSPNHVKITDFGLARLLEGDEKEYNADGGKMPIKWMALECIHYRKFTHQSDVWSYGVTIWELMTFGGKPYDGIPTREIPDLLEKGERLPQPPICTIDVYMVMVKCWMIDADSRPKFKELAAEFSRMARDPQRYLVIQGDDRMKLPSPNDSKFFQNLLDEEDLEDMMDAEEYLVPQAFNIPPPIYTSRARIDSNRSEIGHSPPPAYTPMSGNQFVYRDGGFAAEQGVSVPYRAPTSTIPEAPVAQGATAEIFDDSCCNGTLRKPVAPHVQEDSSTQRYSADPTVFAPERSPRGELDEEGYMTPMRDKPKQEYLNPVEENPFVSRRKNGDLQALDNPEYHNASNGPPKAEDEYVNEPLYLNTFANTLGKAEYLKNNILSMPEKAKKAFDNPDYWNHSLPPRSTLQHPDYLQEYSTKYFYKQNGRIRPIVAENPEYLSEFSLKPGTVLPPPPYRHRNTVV
Description for NCI-H1975: Antitumor activity against human NCI-H1975 cells xenografted in BALB/c mouse assessed as inhibition of tumor cell proliferation by measuring Ki-67 expression at 50 mg/kg, po qd for 14 consecutive days by immunohistochemistry

As for `C=CC(=O)Nc1cccc(-n2c(=O)c(=O)n(C(C)C)c3cnc(Nc4ccc(N5CCN(C)CC5)cc4OC)nc32)c1`, the Activity in [1] is less than 1%; in series [5] it was less than 1%; in series [10], “Non-Toxic”. For the same compound, in [2], the inhibition result was “inactive”. In addition, the AUC(0-t) in series [3] came to 673 ng·h/mL. The half-life is 66 min in series [4] and 48 min in [9]. In addition, the inhibition in vivo at 50 mg/kg in the series with A-431 worked out at 50%. Besides, the values for the IC50 in series [6] and in series [11] were 2 nM and 0.3 nM, respectively. This compound also showed a clearance in [7] of 117 mL/min/kg. The inhibition result in the series on NCI-H1975 is “Active”. The compound further came in with an AUC(0-inf) in series [8] of 680 ng·h/mL.
